From patent US20090012103A1, “SUBSTITUTED HETEROCYCLIC COMPOUNDS” (priority 2007, published 2009)
Like-named read-outs stand apart in the source and are kept apart here.

Key:
[1] = biological target: wild-type human cardiac sodium channel, hNav1.5 (Homo sapiens, UniProt Q14524); assay: Late INa screening assay (late sodium current, PatchXpress whole cell patch clamp); type: cell-based; conditions: read-out: Late INa % blk
hERG potassium channel = hERG potassium channel (Homo sapiens, UniProt Q12809); assay: hERG screening assay (PatchXpress patch clamp, CHO cell line)
hERG potassium channel, sequence (Q12809 whole entry): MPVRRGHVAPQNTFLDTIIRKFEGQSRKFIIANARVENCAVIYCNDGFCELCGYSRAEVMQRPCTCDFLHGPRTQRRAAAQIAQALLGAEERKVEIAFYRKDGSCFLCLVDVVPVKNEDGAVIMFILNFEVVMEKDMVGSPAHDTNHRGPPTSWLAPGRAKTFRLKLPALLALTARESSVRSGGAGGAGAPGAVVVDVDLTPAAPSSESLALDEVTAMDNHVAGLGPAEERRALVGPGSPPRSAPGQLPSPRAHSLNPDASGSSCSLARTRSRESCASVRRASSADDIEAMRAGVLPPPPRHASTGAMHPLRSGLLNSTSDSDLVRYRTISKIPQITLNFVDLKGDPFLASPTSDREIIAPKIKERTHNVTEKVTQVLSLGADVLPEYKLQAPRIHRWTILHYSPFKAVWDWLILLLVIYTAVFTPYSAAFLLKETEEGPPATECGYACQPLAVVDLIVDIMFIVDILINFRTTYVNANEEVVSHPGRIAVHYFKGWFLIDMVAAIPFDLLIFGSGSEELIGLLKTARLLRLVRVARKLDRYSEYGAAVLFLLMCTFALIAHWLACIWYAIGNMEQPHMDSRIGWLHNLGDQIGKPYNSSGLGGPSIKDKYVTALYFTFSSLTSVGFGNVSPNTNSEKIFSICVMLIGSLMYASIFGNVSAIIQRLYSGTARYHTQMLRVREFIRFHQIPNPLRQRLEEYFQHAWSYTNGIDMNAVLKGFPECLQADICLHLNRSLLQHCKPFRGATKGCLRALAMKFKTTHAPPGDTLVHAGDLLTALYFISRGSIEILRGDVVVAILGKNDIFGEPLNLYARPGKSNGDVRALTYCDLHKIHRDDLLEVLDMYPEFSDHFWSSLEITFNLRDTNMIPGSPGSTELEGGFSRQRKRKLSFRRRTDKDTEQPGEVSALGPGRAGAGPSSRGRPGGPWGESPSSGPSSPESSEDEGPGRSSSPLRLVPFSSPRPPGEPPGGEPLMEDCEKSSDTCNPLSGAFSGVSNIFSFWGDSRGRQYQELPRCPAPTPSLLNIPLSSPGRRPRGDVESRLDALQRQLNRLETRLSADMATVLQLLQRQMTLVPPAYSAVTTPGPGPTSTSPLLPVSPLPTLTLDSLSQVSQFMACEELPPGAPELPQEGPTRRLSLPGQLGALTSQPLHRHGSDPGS

wild-type human cardiac sodium channel, hNav1.5, sequence (Q14524 whole entry): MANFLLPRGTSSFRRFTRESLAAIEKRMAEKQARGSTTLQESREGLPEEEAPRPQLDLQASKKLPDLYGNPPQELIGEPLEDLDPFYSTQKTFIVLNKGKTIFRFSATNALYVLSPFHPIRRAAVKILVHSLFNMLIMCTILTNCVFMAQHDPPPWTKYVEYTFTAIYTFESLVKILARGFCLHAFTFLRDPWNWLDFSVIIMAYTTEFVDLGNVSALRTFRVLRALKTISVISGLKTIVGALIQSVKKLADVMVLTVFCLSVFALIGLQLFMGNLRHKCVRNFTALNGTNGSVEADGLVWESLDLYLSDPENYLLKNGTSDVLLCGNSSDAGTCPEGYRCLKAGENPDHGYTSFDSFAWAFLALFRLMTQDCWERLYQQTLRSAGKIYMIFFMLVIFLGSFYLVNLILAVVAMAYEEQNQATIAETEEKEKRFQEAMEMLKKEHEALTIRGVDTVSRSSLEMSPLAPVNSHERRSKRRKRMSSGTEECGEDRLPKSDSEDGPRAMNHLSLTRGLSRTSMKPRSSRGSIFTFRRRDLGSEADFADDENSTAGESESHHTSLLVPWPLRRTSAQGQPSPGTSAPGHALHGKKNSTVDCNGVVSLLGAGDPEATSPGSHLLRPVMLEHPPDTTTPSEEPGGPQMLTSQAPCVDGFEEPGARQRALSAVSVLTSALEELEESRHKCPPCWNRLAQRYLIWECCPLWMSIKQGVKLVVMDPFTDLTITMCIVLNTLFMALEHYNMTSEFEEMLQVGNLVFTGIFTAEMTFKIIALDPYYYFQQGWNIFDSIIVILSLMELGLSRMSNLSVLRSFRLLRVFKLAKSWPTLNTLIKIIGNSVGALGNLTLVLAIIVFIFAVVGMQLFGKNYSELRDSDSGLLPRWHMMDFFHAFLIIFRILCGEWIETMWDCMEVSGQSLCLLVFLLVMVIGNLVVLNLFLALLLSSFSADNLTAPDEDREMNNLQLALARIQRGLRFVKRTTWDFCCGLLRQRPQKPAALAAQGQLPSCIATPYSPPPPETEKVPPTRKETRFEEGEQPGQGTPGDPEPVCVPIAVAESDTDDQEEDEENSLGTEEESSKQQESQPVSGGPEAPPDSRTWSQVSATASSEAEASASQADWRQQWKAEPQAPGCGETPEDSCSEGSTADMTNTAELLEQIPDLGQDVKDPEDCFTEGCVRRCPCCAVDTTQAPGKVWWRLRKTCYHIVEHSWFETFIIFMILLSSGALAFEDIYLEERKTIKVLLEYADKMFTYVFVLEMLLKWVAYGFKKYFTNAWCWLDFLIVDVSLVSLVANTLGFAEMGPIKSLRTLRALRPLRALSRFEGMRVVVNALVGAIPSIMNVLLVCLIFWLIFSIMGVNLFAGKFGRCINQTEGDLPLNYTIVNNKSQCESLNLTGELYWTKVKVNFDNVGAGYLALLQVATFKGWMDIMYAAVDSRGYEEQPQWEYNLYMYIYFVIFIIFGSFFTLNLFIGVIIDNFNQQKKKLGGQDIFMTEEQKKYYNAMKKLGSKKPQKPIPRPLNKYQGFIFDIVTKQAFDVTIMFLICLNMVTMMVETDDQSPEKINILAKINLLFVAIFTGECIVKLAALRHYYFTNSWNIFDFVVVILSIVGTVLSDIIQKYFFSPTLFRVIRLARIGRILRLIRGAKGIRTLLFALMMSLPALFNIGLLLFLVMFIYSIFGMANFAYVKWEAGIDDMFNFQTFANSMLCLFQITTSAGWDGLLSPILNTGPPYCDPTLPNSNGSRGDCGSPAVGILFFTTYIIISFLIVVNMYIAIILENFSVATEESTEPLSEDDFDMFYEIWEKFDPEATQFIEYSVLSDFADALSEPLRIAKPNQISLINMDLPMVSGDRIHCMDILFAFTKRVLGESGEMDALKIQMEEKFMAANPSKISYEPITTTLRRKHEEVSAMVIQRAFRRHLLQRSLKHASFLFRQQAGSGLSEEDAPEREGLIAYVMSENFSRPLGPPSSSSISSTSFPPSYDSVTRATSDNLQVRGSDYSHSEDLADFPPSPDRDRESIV

Compound | inhibition at 10 µM ([1]; compound at 10 μM) [%] | hERG Patch Clamp hERG % blk (hERG potassium channel; 1 μM) [%] | hERG Patch Clamp hERG % blk (hERG potassium channel; 10 μM) [%] | inhibition at 10 µM [1] [%]
CCOC(=O)C1=C(CC)Nc2nnnn2C1c1cccc2ccccc12 (stereo not shown) [PT-010, ethyl 5-ethyl-7-(naphthalen-1-yl)-4,7-dihydrotetrazolo[1,5-a]pyrimidine-6-carboxylate] | 36.1 | 12.5 | 30.0 | 
CCOC(=O)C1=C(C)Nc2nnnn2C1c1csc2ccccc12 (stereo not shown) [PT-017, ethyl 7-(benzo[b]thiophen-3-yl)-5-methyl-4,7-dihydrotetrazolo[1,5-a]pyrimidine-6-carboxylate] | 45.9 | 10.0 | 23.5 | 
CCOC(=O)C1=C(C)Nc2nnnn2C1c1sc2ccccc2c1C (stereo not shown) [PT-018, ethyl 5-methyl-7-(3-methylbenzo[b]thiophen-2-yl)-4,7-dihydrotetrazolo[1,5-a]pyrimidine-6-carboxylate] |  | 14.5 | 36.5 | 36.5
CCOC(=O)C1=C(C)Nc2nnnn2C1c1cc2ccccc2o1 (stereo not shown) [PT-019, ethyl 7-(benzofuran-2-yl)-5-methyl-4,7-dihydrotetrazolo[1,5-a]pyrimidine-6-carboxylate] | 35.7 | 10.0 | 26.0 | 
CC1=C(C(=O)OC(C)C)C(c2cccc3ccccc23)n2nnnc2N1 (stereo not shown) [PT-021, isopropyl 5-methyl-7-(naphthalen-1-yl)-4,7-dihydrotetrazolo[1,5-a]pyrimidine-6-carboxylate] | 48.2 | 13.0 | 43.5 | 
CC1=C(C(=O)OCc2ccccc2)C(c2ccccc2-c2ccccc2)n2nnnc2N1 (stereo not shown) [PT-025, benzyl 7-(biphenyl-2-yl)-5-methyl-4,7-dihydrotetrazolo[1,5-a]pyrimidine-6-carboxylate] | 78.8 | 11.0 | 53.0 | 
COc1ccc2ccccc2c1C1C(C(=O)OCc2ccccc2)=C(C)Nc2nnnn21 (stereo not shown) [PT-030, benzyl 7-(2-methoxynaphthalen-1-yl)-5-methyl-4,7-dihydrotetrazolo[1,5-a]pyrimidine-6-carboxylate] | 66.5 | 10.5 | 34.5 | 
CC1=C(C(=O)OCc2ccccc2)C(c2cccc3c2OCO3)n2nnnc2N1 (stereo not shown) [PT-034, benzyl 7-(benzo[d][1,3]dioxol-4-yl)-5-methyl-4,7-dihydrotetrazolo[1,5-a]pyrimidine-6-carboxylate] | 52.4 | 14.5 | 56.0 | 
CC1=C(C(=O)OCc2ccccc2)C(c2c3ccccc3cc3ccccc23)n2nnnc2N1 (stereo not shown) [PT-039, benzyl 7-(anthracen-9-yl)-5-methyl-4,7-dihydrotetrazolo[1,5-a]pyrimidine-6-carboxylate] | 82.1 | 10.0 | 27.5 | 
CC1=C(C(=O)OCc2ccccc2)C(c2csc3ccccc23)n2nnnc2N1 (stereo not shown) [PT-042, benzyl 7-(benzo[b]thiophen-3-yl)-5-methyl-4,7-dihydrotetrazolo[1,5-a]pyrimidine-6-carboxylate] | 76.5 | 11.0 | 52.5 | 
CC1=C(C(=O)OCc2ccccc2)C(c2sc3ccccc3c2C)n2nnnc2N1 (stereo not shown) [PT-044, benzyl 5-methyl-7-(3-methylbenzo[b]thiophen-2-yl)-4,7-dihydrotetrazolo[1,5-a]pyrimidine-6-carboxylate] | 70.7 | 16.5 | 40.0 | 
CC1=C(C(=O)O[C@@H](C)c2ccccc2)[C@@H](c2cccc3ccccc23)n2nnnc2N1 [PT-050, (R)-((S)-1-phenylethyl) 5-methyl-7-(naphthalen-1-yl)-4,7-dihydrotetrazolo[1,5-a]pyrimidine-6-carboxylate] | 94 | 10.0 | 53.5 | 
CC1=C(C(=O)O[C@@H](C)c2ccccc2)C(c2cc3ccccc3o2)n2nnnc2N1 (stereo partly drawn) [PT-059, (S)-1-phenylethyl 7-(benzofuran-2-yl)-5-methyl-4,7-dihydrotetrazolo[1,5-a]pyrimidine-6-carboxylate] |  | 10.0 | 66.5 | 
CCOC(=O)C1=C(C)NC(C)=C(C(=O)OCC)C1c1sc2ccccc2c1C [PT-116, diethyl 2,6-dimethyl-4-(3-methylbenzo[b]thiophen-2-yl)-1,4-dihydropyridine-3,5-dicarboxylate] |  | 22.9 | 66.0 | 
CCOC(=O)C1=C(C)Nc2nnnn2C1c1sccc1Br (stereo not shown) [PT-498, ethyl 7-(3-bromothiophen-2-yl)-5-methyl-4,7-dihydrotetrazolo[1,5-a]pyrimidine-6-carboxylate] | 25.2 |  |  | 
CCOC(=O)C1=C(C)Nc2nnnn2C1c1ccccc1-c1cccc(C#N)c1 (stereo not shown) [PT-499, ethyl 7-(3′-cyanobiphenyl-2-yl)-5-methyl-4,7-dihydrotetrazolo[1,5-a]pyrimidine-6-carboxylate] | 27.7 |  |  | 
CCOC(=O)C1=C(C)Nc2nnnn2C1c1ccccc1-c1ccc(-c2nnn[nH]2)cc1 (stereo not shown) [PT-500, ethyl 7-(4′-(1H-tetrazol-5-yl)biphenyl-2-yl)-5-methyl-4,7-dihydrotetrazolo[1,5-a]pyrimidine-6-carboxylate] | 2.7 |  |  | 
CCOC(=O)C1=C(C)Nc2nnnn2C1c1ccc(N(C)C)cc1[N+](=O)[O-] (stereo not shown) [PT-501, ethyl 7-(4-(dimethylamino)-2-nitrophenyl)-5-methyl-4,7-dihydrotetrazolo[1,5-a]pyrimidine-6-carboxylate] | 2.5 |  |  | 

Compound | inhibition at 10 µM ([1]; compound at 10 μM) [%] | hERG Patch Clamp hERG % blk (hERG potassium channel; 1 μM) [%] | hERG Patch Clamp hERG % blk (hERG potassium channel; 10 μM) [%] | inhibition at 10 µM [1] [%]
CCOC(=O)C1=C(C)Nc2ccnn2C1c1ccc(N(C)C)c2ccccc12 (stereo not shown) [PT-502, ethyl 7-(4-(dimethylamino)naphthalen-1-yl)-5-methyl-4,7-dihydropyrazolo[1,5-a]pyrimidine-6-carboxylate] | 27 |  |  | 
CCOC(=O)C1=C(C)Nc2nnnn2C1c1ccccc1-c1ccc(C#N)cc1 (stereo not shown) [PT-503, ethyl 7-(4′-cyanobiphenyl-2-yl)-5-methyl-4,7-dihydrotetrazolo[1,5-a]pyrimidine-6-carboxylate] | 29.2 |  |  | 
CCOC(=O)C1=C(C)Nc2nnnn2C1c1ccc(OC)c2ccccc12 (stereo not shown) [PT-504, ethyl 7-(4-methoxynaphthalen-1-yl)-5-methyl-4,7-dihydrotetrazolo[1,5-a]pyrimidine-6-carboxylate] | 28.2 |  |  | 
COC(=O)C1=C(C)Nc2cc(C)nn2C1c1nc(C)cs1 (stereo not shown) [PT-507, methyl 2,5-dimethyl-7-(4-methylthiazol-2-yl)-4,7-dihydropyrazolo[1,5-a]pyrimidine-6-carboxylate] | 0.2 |  |  | 
COC(=O)C1=C(C)Nc2cc(C)nn2C1c1cccc2ccccc12 (stereo not shown) [PT-508, methyl 2,5-dimethyl-7-(naphthalen-1-yl)-4,7-dihydropyrazolo[1,5-a]pyrimidine-6-carboxylate] | 11.6 |  |  | 
COC(=O)C1=C(C)Nc2[nH]nc(C)c2C1c1nc(C)cs1 (stereo not shown) [PT-509, methyl 3,6-dimethyl-4-(4-methylthiazol-2-yl)-4,7-dihydro-1H-pyrazolo[3,4-b]pyridine-5-carboxylate] | 6.4 |  |  | 
COC(=O)C1=C(C)Nc2[nH]ncc2C1c1sc(Cl)nc1Cl (stereo not shown) [PT-510, methyl 4-(2,4-dichlorothiazol-5-yl)-6-methyl-4,7-dihydro-1H-pyrazolo[3,4-b]pyridine-5-carboxylate] | 19.9 |  |  | 
COC(=O)C1=C(C)Nc2ccnn2C1c1nc(C)cs1 (stereo not shown) [PT-511, methyl 5-methyl-7-(4-methylthiazol-2-yl)-4,7-dihydropyrazolo[1,5-a]pyrimidine-6-carboxylate] | 19.5 |  |  | 
COC(=O)C1=C(C)Nc2nnnn2C1c1cccs1 (stereo not shown) [PT-513, methyl 5-methyl-7-(thiophen-2-yl)-4,7-dihydrotetrazolo[1,5-a]pyrimidine-6-carboxylate] | 10.5 |  |  | 
COC(=O)C1=C(C)Nc2[nH]ncc2C1c1nc(C)cs1 (stereo not shown) [PT-515, methyl 6-methyl-4-(4-methylthiazol-2-yl)-4,7-dihydro-1H-pyrazolo[3,4-b]pyridine-5-carboxylate] | 10.8 |  |  | 
CCOC(=O)c1ccc(COc2ccccc2C2C(C(=O)OC)=C(C)Nc3nnnn32)cc1 (stereo not shown) [PT-516, methyl 7-(2-(4-(ethoxycarbonyl)benzyloxy)phenyl)-5-methyl-4,7-dihydrotetrazolo[1,5-a]pyrimidine-6-carboxylate] | 20.2 |  |  | 
COC(=O)C1=C(C)Nc2nnnn2C1c1c(Br)sc2ccc(Cl)cc12 (stereo not shown) [PT-517, methyl 7-(2-bromo-5-chlorobenzo[b]thiophen-3-yl)-5-methyl-4,7-dihydrotetrazolo[1,5-a]pyrimidine-6-carboxylate] | 43.3 |  |  | 
COC(=O)C1=C(C)Nc2nnnn2C1c1ccccc1I (stereo not shown) [PT-519, methyl 7-(2-iodophenyl)-5-methyl-4,7-dihydrotetrazolo[1,5-a]pyrimidine-6-carboxylate] | 27.3 |  |  | 
COC(=O)C1=C(C)Nc2nnnn2C1c1sc2ccccc2c1Br (stereo not shown) [PT-520, methyl 7-(3-bromobenzo[b]thiophen-2-yl)-5-methyl-4,7-dihydrotetrazolo[1,5-a]pyrimidine-6-carboxylate] | 78.4 |  |  | 
COC(=O)C1=C(C)Nc2nnnn2C1c1ccc(-c2ccc(OC)cc2)s1 (stereo not shown) [PT-521, methyl 7-(5-(4-methoxyphenyl)thiophen-2-yl)-5-methyl-4,7-dihydrotetrazolo[1,5-a]pyrimidine-6-carboxylate] | 37.5 |  |  | 
COC(=O)C1=C(C)Nc2nnnn2C1c1ccc(Br)s1 (stereo not shown) [PT-522, methyl 7-(5-bromothiophen-2-yl)-5-methyl-4,7-dihydrotetrazolo[1,5-a]pyrimidine-6-carboxylate] | 37.7 |  |  | 
CC1=C(C(=O)OCc2cccs2)C(c2cccc3ccccc23)n2nnnc2N1 (stereo not shown) [PT-525, thiophen-2-ylmethyl 5-methyl-7-(naphthalen-1-yl)-4,7-dihydrotetrazolo[1,5-a]pyrimidine-6-carboxylate] | 67.5 |  |  | 
